pIC50: −log10 of the molar value. Like-named read-outs stand apart in the source and are kept apart here.
Experiments:
[1] = tested on: hyperpolarization-activated cation currents (Ih) in GH3 cells; assay: Whole-cell patch-clamp of hyperpolarization-activated cation current (−40 to −110 mV); format: cell-based, rat
Procedure: In the following experiments, we further studied whether the presence of SSM could perturb another type of inwardly directed current, i.e., Ih. Cells were exposed to Ca^2+-free Tyrode’s solution containing 1 μM TTX and the pipette was filled with K^+-containing solution. As the hyperpolarizing command pulse from −40 to −110 mV with a duration of 2 sec was delivered, Ih with a slowly activating property was robustly evoked, as observed previously. […] Cilobradine has recently been reported to decrease Ih amplitude, as well as to alter activation kinetics present in different types of excitable cells.
The bath solution (i.e., a HEPES-buffered normal Tyrode’s solution) utilized in the present study was composed of 136 mM NaCl, 5.4 mM KCl, 1.8 mM CaCl2, 0.53 mM MgCl2, 5.5 mM glucose, and 5.5 mM HEPES titrated with NaOH to pH 7.4. To measure macroscopic IK(DR) and Ih, we filled patch pipettes by using a solution containing 130 mM K-aspartate, 20 mM KCl, 1 mM KH2PO4, 1 mM MgCl2, 3 mM Na2ATP, 0.1 mM Na2GTP, 0.1 mM EGTA, and 5 mM HEPES adjusted with KOH to pH 7.2. To record INa and INa(R), we substituted K^+ ions in the pipette solution inside the electrode for equmolar Cs^+ ions and the pH value in the solution was adjusted to 7.2 with CsOH. […]
On the day of each experiment, cells were dispersed with a 1% trypsin/EDTA solution and a few drops of cell suspension were rapidly placed in a custom-built recording chamber mounted on the stage of an inverted DM-IL microscope (Leica; Major Instruments, Kaohsiung, Taiwan). […] We measured ion currents in the whole-cell model of a standard patch-clamp technique with dynamic adaptive suctioning (i.e., decremental change of suction pressure in response to a progressive increase in the electrode resistance), with the aid of an RK-400 (Bio-Logic, Claix, France) or an Axopatch-200B (Molecular Devices, Sunnyvale, CA) patch amplifier. […] During the measurements, the recorded area on the vibration-free table was shielded by using a Faraday cage (Scitech, Seoul, South Korea). […]

[2] = tested on: voltage-gated Na+ currents (INa) in pituitary GH3 cells; assay: Whole-cell patch-clamp of voltage-gated Na+ current evoked by depolarization from −80 to −10 mV; format: cell-based, rat; conditions: for Effect on SSM-induced inhibition of peak INa: 10 μM added in continued presence of SSM (3 μM); for pIC50: GH3 cells, depolarization −80 to −10 mV
Procedure: In an initial step of the experiments, we examined the effects of SSM on the amplitude and gating of INa in response to rapid membrane depolarization. Cells were bathed in Ca^2+-free Tyrode’s solution containing 10 mM tetraethylammonium chloride (TEA) and the recording pipette was backfilled with a Cs^+-containing solution. […] For example, when rapid membrane depolarization from −80 to −10 mV with a duration of 40 msec was delivered (indicated in the inset of Figure 1A) to evoke INa, the addition of 3 μM SSM caused a decrease in the peak or sustained amplitude of INa to 139 ± 11 pA (n = 11, P < 0.05) or 12 ± 3 pA (n = 11, P < 0.05), respectively, from the control values of 248 ± 18 or 21 ± 2 pA (n = 11). After the removal of SSM, the peak and sustained amplitude returned to 232 ± 16 or 19 ± 2 pA (n = 7, P < 0.05).
The bath solution (i.e., a HEPES-buffered normal Tyrode’s solution) utilized in the present study was composed of 136 mM NaCl, 5.4 mM KCl, 1.8 mM CaCl2, 0.53 mM MgCl2, 5.5 mM glucose, and 5.5 mM HEPES titrated with NaOH to pH 7.4. To measure macroscopic IK(DR) and Ih, we filled patch pipettes by using a solution containing 130 mM K-aspartate, 20 mM KCl, 1 mM KH2PO4, 1 mM MgCl2, 3 mM Na2ATP, 0.1 mM Na2GTP, 0.1 mM EGTA, and 5 mM HEPES adjusted with KOH to pH 7.2. To record INa and INa(R), we substituted K^+ ions in the pipette solution inside the electrode for equmolar Cs^+ ions and the pH value in the solution was adjusted to 7.2 with CsOH. To measure IK(erg) and IK(M), cells were bathed in a high-K^+ solution containing 145 mM KCl, 0.53 mM MgCl2, and 5 mM HEPES-KOH buffer, pH 7.4. All solutions were prepared using deionized water from a Millipore Milli-Q purification system (ρ = 18 MΩ·cm) (Merck, Ltd., Taipei, Taiwan). The pipette solution and culture medium were filtered on the day of use with a sterile Acrodisc® syringe filter with a 0.2-μm Supor® membrane (Bio-Check; New Taipei City, Taiwan).
The pituitary adenomatous cell line, GH3, was acquired from the Bioresource Collection and Research Center ((BCRC-60015, https://catalog.bcrc.firdi.org.tw/BcrcContent?bid=60015); Hsinchu, Taiwan). Cells were maintained in Ham’s F-12 medium supplemented with 2.5% fetal bovine serum (v/v), 15% horse serum (v/v), and 2 mM L-glutamine in a humidified environment of 5% CO2/95% air. When well differentiated, GH3 cells were transferred to a serum- and Ca^2+-free medium. Electrical recordings were performed 5 or 6 days after cells were cultured with 60–80% confluence.
On the day of each experiment, cells were dispersed with a 1% trypsin/EDTA solution and a few drops of cell suspension were rapidly placed in a custom-built recording chamber mounted on the stage of an inverted DM-IL microscope (Leica; Major Instruments, Kaohsiung, Taiwan). They were immersed at room temperature (20–25 °C) in normal Tyrode’s solution, the composition of which is elaborated above. We measured ion currents in the whole-cell model of a standard patch-clamp technique with dynamic adaptive suctioning (i.e., decremental change of suction pressure in response to a progressive increase in the electrode resistance), with the aid of an RK-400 (Bio-Logic, Claix, France) or an Axopatch-200B (Molecular Devices, Sunnyvale, CA) patch amplifier. The microelectrodes used were prepared from Kimax-51 borosilicate capillaries with a 1.5-mm outer diameter (#34500; Kimble; Dogger, New Taipei City, Taiwan) by using a PP-830 vertical puller (Narishige, Taiwan Instrument, Taipei, Taiwan). The recording electrodes had their tip resistances, which ranged between 3 and 5 MΩ, as they were filled up with the different internal solutions elaborated above. During the measurements, the recorded area on the vibration-free table was shielded by using a Faraday cage (Scitech, Seoul, South Korea). […]

COc1ccc(CCN2CCC[C@H](CN3CCc4cc(OC)c(OC)cc4CC3=O)C2)cc1OC [cilobradine, reference compound]
Effect on Ih amplitude ([1]; 3 or 10 μM added in continued presence of SSM (10 μM)): highly effective at inhibiting

Cc1c(F)c(F)c(COC(=O)[C@@H]2[C@H](/C=C(\Cl)C(F)(F)F)C2(C)C)c(F)c1F (racemic) [tefluthrin, reference compound]
Effect on SSM-induced inhibition of peak INa [2]: effective in reversing

c1cc2c(cc1O[C@H]1OC[C@H]3[C@@H]1CO[C@@H]3c1ccc3c(c1)OCO3)OCO2 [SesA, 5-[(1S,3aR,4R,6aR)-4-(1,3-benzodioxol-5-yloxy)tetrahydro-1H,3H-furo[3,4-c]furan-1-yl]-1,3-benzodioxole]
Effect on peak amplitude of INa ([2]; 3 μM, −80 to −10 mV (Figure 2)): produced inhibitory effects | pIC50 ([2]; amplitude at beginning of pulse, read-out: IC50 for decrease of peak INa): 5.01 | pIC50 ([2]; amplitude at end of pulse, read-out: IC50 for decrease of sustained INa): 5.60 | Effect on Ih amplitude ([1]; 10 μM): minimal effect

CCCc1nc2c(C)cc(-c3nc4ccccc4n3C)cc2n1Cc1ccc(-c2ccccc2C(=O)O)cc1 [telmisartan, reference compound]
Effect on SSM-induced inhibition of peak INa [2]: effective in reversing

— paper PMC7411736, “Effects of Sesamin, the Major Furofuran Lignan of Sesame Oil, on the Amplitude and Gating of Voltage-Gated Na^+ and K^+ Currents” (Molecules, 2020)
